# Measured values: patent publication US8735387B2, “Oxazolopyrimidines as Edg-1 receptor agonists” (Sanofi, priority 2008, dated 2014)
# Target: T1, human Edg-1 receptor (Homo sapiens, UniProt P21453)
# T1 construct: expressed in transfected cells; membrane preparation
# Assay: GTP-γ-S assay using human Edg-1 receptors (scintillation proximity assay, membrane preparation from CHO Flp-In cell line)
# Assay type: biochemical
# Conditions: example compound at 10 μM; relative to 10 μM S1P; GTP-γ-S SPA, human Edg-1 membranes
# Source text: Determination of the Pharmacological Activity A) GTP-γ-S Assay Using Human Edg-1 Receptors
# In order to determine the Edg-1 receptor activation by the compounds of the invention, a GTP-γ-S (guanosine 5′-[γ-thio]triphosphate) assay for G-protein coupled receptor binding based on the scintillation proximity assay principle was used, employing a cell membrane preparation from a CHO Flp-In cell line which constitutively overexpresses the human Edg-1 receptor.
# The Flp-In™ expression system (Invitrogen, cat. no. K6010-01) allows the generation of stable mammalian cell lines into which the gene of interest has been integrated through homologous recombination at a specific genomic location called Flp Recombination Target (FRT) site by means of a Flp recombinase encoded by the pOG44 expression plasmid. The integration of the pcDNA5/FRT expression construct into the Flp-In host cell line genome results in the transcription of the gene of interest. The stably transfected cells become hygromycin-resistant.
# One day prior to transfection, 200 000 Flp-In-CHO cells were seeded in Ham F-12 medium (Invitrogen, cat. no. 31765) supplemented with 10% fetal calf serum (FCS; Perbio Science, cat. no. SH30068.03) in a 6-well plate and incubated at 37° C./5% CO2 overnight. Using the FuGENE® 6 transfection reagent (Roche, cat. no. 11988387001), cells were cotransfected with the Flp recombinase expression plasmid pOG44 and a modified plasmid additionally containing the edg-1 gene (accession no. NM_001400) termed as pcDNA5-FRT-TO_nFLAG_DEST-EDG-1 with a 9:1 ratio. To obtain the modified pcDNA5-FRT-TO_nFLAG_DEST plasmid, the Invitrogen plasmid pcDNA5/FRT/TO (Invitrogen, cat. no. V6520-20) was adapted to the Gateway® (Invitrogen) cloning system by inserting a Gateway cassette containing attR recombination sites flanking a ccdB gene and a chloramphenicol-resistance gene (Gateway conversion system, Invitrogen, cat. no. 11828-029). In addition a FLAG tag epitope was added before the 5′ att recombination site to allow recombinant expression of N-terminally FLAG-tagged proteins.
# For the transfection of one well, 1.08 μg of pOG44 and 0.12 μg of pcDNA5-FRT-TO_nFLAG_DEST-EDG-1 were mixed to 100 μl of serum-free Ham F-12 medium containing 6 μl of FuGENE® 6 transfection reagent. After 20 min of incubation, the transfection reagent/DNA complex was distributed dropwise on the cells. The cells were incubated for 24 h at 37° C. Then the cells from 3 wells each were transferred to a T75 flask (Greiner Cellstar®, cat. no. 658175) containing Ham F-12 medium supplemented with 10% of FCS but without antibiotic and were incubated another 24 h. 48 h after transfection, the medium was replaced by selection medium (Ham F-12 supplemented with 10% of FCS and 300 μg/ml of hygromycin B (Invitrogen, cat. no. 10687-010)). The medium was exchanged every 2 to 3 days until a resistant population of cells had grown. […] After 2 weeks of selection, the cells were transferred into T175 flasks (Greiner Cellstar®, cat. no. 660175) and cultivated for batch production. Cells were harvested from the culture flasks by short treatment (2 to 5 min) with Accutase (PAA, cat. no. L11-007), resuspended in selection medium (see above) and centrifuged at 200×g for 5 min. Cells were resuspended in a mixture of 90% of FCS and 10% of dimethylsulfoxide and stored frozen in liquid nitrogen.
# A membrane preparation was obtained by standard methods from the afore-described CHO Flp-In cell line constitutively overexpressing the human Edg-1 receptor. Briefly, the cryopreserved cells were taken in culture and grown until confluency in T175 cell culture flasks (Becton Dickinson, cat. no. 35 5001). […]
# T1 sequence (P21453 whole entry): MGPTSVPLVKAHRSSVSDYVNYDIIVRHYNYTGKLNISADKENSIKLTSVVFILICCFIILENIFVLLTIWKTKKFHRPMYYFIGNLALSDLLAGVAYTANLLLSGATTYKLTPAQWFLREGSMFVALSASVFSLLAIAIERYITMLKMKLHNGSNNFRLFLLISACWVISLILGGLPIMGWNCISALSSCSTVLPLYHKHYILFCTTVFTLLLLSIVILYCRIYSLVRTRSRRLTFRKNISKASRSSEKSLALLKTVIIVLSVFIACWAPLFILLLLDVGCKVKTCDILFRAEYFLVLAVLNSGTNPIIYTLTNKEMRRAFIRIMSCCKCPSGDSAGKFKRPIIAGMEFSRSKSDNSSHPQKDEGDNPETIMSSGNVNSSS
row,Structure (SMILES),% Activation (Edg-1 receptor activation in percent of the activation by 10 μM S1P)
1,CCCOc1nc(CN2CCOCC2)nc2oc(-c3cncc(F)c3)nc12 [Example 39],82%
2,CCCOc1nc(CN2CCC(F)(F)CC2)nc2oc(-c3cncc(F)c3)nc12 [Example 40],123%
3,CCCOc1nc(CN2CCOCC2)nc2oc(-c3ccccc3)nc12 [Example 41],116%
4,CCCOc1nc(CN2CCC(F)(F)CC2)nc2oc(-c3ccccc3)nc12 [Example 42],92%
5,CCCOc1nc(CN2CCCOCC2)nc2oc(-c3ccccc3)nc12 [Example 43],122%
6,CCCOc1nc(Cn2ccnn2)nc2oc(-c3cccc(F)c3)nc12 [Example 44],78%
7,CCCOc1nc(CN2CCS(=O)(=O)CC2)nc2oc(-c3cccc(F)c3)nc12 [Example 45],69%
8,CCCOc1nc(CN2CC[S+]([O-])CC2)nc2oc(-c3cccc(F)c3)nc12 [Example 46],35%
9,CCCOc1nc(CN2CC(C)OC(C)C2)nc2oc(-c3cccc(F)c3)nc12 (stereo not drawn) [Example 47],85%
10,CCCOc1nc(Cn2ccnc2C)nc2oc(-c3cccc(F)c3)nc12 [Example 48],81%
11,CCCOc1nc(CN2CC3CC2CO3)nc2oc(-c3cccc(F)c3)nc12 (stereo not drawn) [Example 49],48%
12,CCCOc1nc(CN2CCCC(F)(F)C2)nc2oc(-c3cccc(F)c3)nc12 [Example 50],102%
13,CCCOc1nc(CN2CC(C(=O)O)C2)nc2oc(-c3cccc(F)c3)nc12 [Example 51],24%
14,CCCOc1nc(CN2CC(C(=O)OC)C2)nc2oc(-c3cccc(F)c3)nc12 [Example 52],35%
15,CCCOc1nc(CN2C(=O)CN(C)C2=O)nc2oc(-c3cccc(F)c3)nc12 [Example 53],69%
16,CCCOc1nc(Cn2cnc(CO)c2)nc2oc(-c3cccc(F)c3)nc12 [Example 54],30%

row,Structure (SMILES),% Activation (Edg-1 receptor activation in percent of the activation by 10 μM S1P)
1,CCCOc1nc(CN2CCN(S(C)(=O)=O)CC2)nc2oc(-c3cccc(F)c3)nc12 [Example 55],22%
2,CCCOc1nc(Cn2cnc(C(=O)OC)c2)nc2oc(-c3cccc(F)c3)nc12 [Example 56],44%
3,CCCOc1nc(Cn2cnc(C)c2)nc2oc(-c3cccc(F)c3)nc12 [Example 57],99%
4,CCCOc1nc(Cn2cc(C)cn2)nc2oc(-c3cccc(F)c3)nc12 [Example 58],35%
5,CCCOc1nc(Cn2cnc(-c3ccccc3)c2)nc2oc(-c3cccc(F)c3)nc12 [Example 59],30%
6,CCCOc1nc(Cn2cncc2C(=O)OC)nc2oc(-c3cccc(F)c3)nc12 [Example 60],64%
7,CCCOc1nc(Cn2ccnc2)nc2oc(-c3cccc(F)c3)nc12 [Example 61],76%
8,CCCOc1nc(CN2C(=O)COCC2=O)nc2oc(-c3cccc(F)c3)nc12 [Example 62],94%
9,CCCOc1nc(CN2C(=O)CCCC2=O)nc2oc(-c3cccc(F)c3)nc12 [Example 63],102%
10,CCCOc1nc(CN2CCSC2)nc2oc(-c3cccc(F)c3)nc12 [Example 64],93%
11,CCCOc1nc(CN2CCSCC2)nc2oc(-c3cccc(F)c3)nc12 [Example 65],109%
12,CCCOc1nc(CN2CCOCC2)nc2oc(-c3ccc(F)c(F)c3)nc12 [Example 66],107%
13,CCCOc1nc(CN2CCCOCC2)nc2oc(-c3ccc(F)c(F)c3)nc12 [Example 67],105%
14,CCCOc1nc(CN2CCC(F)(F)CC2)nc2oc(-c3ccc(F)c(F)c3)nc12 [Example 68],120%
15,CCCOc1nc(CN2CCCC(F)C2)nc2oc(-c3cccc(F)c3)nc12 (stereo not drawn) [Example 69],113%
16,CCCOc1nc(CN2CCC(F)CC2)nc2oc(-c3cccc(F)c3)nc12 [Example 70],113%

# Results, then the molecule that gave them:
row,% Activation (Edg-1 receptor activation in percent of the activation by 10 μM S1P),Structure (SMILES)
1,116%,CCCOc1nc(CN2CCOCC2)nc2oc(-c3ccnc(Cl)c3)nc12 [Example 71]
2,99%,CCCOc1nc(CN2CCOCC2)nc2oc(-c3cccc(C(F)(F)F)c3)nc12 [Example 72]
3,120%,CCCOc1nc(CN2CCC(F)(F)CC2)nc2oc(-c3cccc(C(F)(F)F)c3)nc12 [Example 73]
4,114%,CCCOc1nc(CN2CCCOCC2)nc2oc(-c3cc(Cl)ccc3OC)nc12 [Example 74]
5,72%,CCCOc1nc(CN2CCOCC2)nc2oc(-c3cc(Cl)ccc3OC)nc12 [Example 75]
6,104%,CCCOc1nc(CN2CCC(F)(F)CC2)nc2oc(-c3cc(Cl)ccc3OC)nc12 [Example 76]
7,112%,CCCOc1nc(CN2CCOCC2)nc2oc(-c3ccc(Cl)c(Cl)c3)nc12 [Example 77]
8,103%,CCCOc1nc(CN2CCCOCC2)nc2oc(-c3ccc(Cl)c(Cl)c3)nc12 [Example 78]
9,111%,CCCOc1nc(CN2CCC(F)(F)CC2)nc2oc(-c3ccc(Cl)c(Cl)c3)nc12 [Example 79]
10,65%,CCCOc1nc(CN2CCCOCC2)nc2oc(-c3cc(OC)ccc3OC)nc12 [Example 80]
11,83%,CCCOc1nc(CN2CCC(F)(F)CC2)nc2oc(-c3cc(OC)ccc3OC)nc12 [Example 81]
12,104%,CCCOc1nc(CN2CCOCC2)nc2oc(-c3c(F)ccc(F)c3F)nc12 [Example 82]
13,111%,CCCOc1nc(CN2CCC(F)(F)CC2)nc2oc(-c3c(F)ccc(F)c3F)nc12 [Example 83]
14,108%,CCCOc1nc(CN2CCOCC2)nc2oc(-c3cc(F)c(F)cc3Cl)nc12 [Example 84]
15,104%,CCCOc1nc(CN2CCCOCC2)nc2oc(-c3cc(F)c(F)cc3Cl)nc12 [Example 85]
16,120%,CCCOc1nc(CN2CCCOCC2)nc2oc(-c3c(F)ccc(F)c3F)nc12 [Example 86]
17,92%,CCCOc1nc(CN2CCC(F)(F)CC2)nc2oc(-c3cc(F)c(F)cc3Cl)nc12 [Example 87]
18,101%,CCCOc1nc(CN2CCOCC2)nc2oc(-c3ccc(OC)c(F)c3)nc12 [Example 88]
19,107%,CCCOc1nc(CN2CCOCC2)nc2oc(-c3ccc(Cl)c(F)c3)nc12 [Example 89]
